Measurements as given in patent US8980933B2, “Combretastatin analogs for use in the treatment of cancer” (Universitat Bayreuth, priority 2010, dated 2015).
Values after ≈ are worked out from the molar mass of the structure shown. Values joined by “and” are separate entries in the source; they are usually repeats but may differ in a detail not shown here. Equal values may be shown once.

Key:
[1] = system: L929 fibroblasts; assay: Cytotoxicity, L929; assay type: cell-based; conditions: Mus musculus, read-out: IC50 L-929
Protocol: (§1) The compounds 9a, 9b and 9c, which are exemplary compounds of formula (III) according to the present invention, as well as the reference compound 25f were tested in a similar manner.

[2] = system: KB-3-1 cervix carcinoma; assay: Cytotoxicity, KB-3-1; assay type: cell-based; conditions: Homo sapiens
Protocol: as §1

[3] = system: NHDF fibroblasts; assay: Cytotoxicity, NHDF; assay type: cell-based; conditions: Homo sapiens; NHDF fibroblasts (non-malign)
Protocol: as §1

[4] = system: HUVEC cells; assay: Minimal inhibitory concentration in HUVEC; assay type: cell-based
Protocol: as §1

[5] = system: PtK-2 opossum kidney cells; assay: Cytotoxicity, PtK-2; assay type: cell-based; conditions: PtK2; PtK-2 opossum kidney cells (non-malign)
Protocol: as §1

[6] = system: PC-3 prostata cancer; assay: Cytotoxicity, PC-3; assay type: cell-based
Protocol: as §1

[7] = system: vascular system of a fertilized chicken embryo; assay: CAM assay; assay type: in vivo; conditions: 10 nmol applied on the embryonal vessels; up to three days
Protocol: Compounds of the present invention were tested for anti-angiogenic and vasculature disrupting properties using the CAM assay. In this test the vascular system of a fertilized chicken embryo is used as a model (Wilting et al., Anat. Embryol. 1991, 183, 259-271).
Fertilized chicken eggs received from a nearby farm directly after laying have been incubated at a temperature of 36-38° C. and a relative humidity of 60%. During the growth the eggs have been held in an inclined position and turned from time to time in order to avoid an adherence to the shell. After four days each embryo was transferred into a cavity created by fixing a thin plastic foil on top of a cup and covered. This was done by opening the shell at the flat end where the air sac resides and letting the content slip out. There the growth continued for another 2-4 days until the first blood vessels became visible. Then 10 nmol of the substance to be tested (in 10 μL PBS with 1% DMF) have been applied directly on the embryonal vessels. As a reference PBS was used. Finally incubation continued for up to another three days (Dugan et al., Anat. Rec. 1991, 229, 125-128; Fisher, Tested studies for laboratory teaching 1993, 5, 105-115).

[8] = system: HT-29 colon carcinoma cells; assay: MTT cell growth inhibition, HT-29; assay type: cell-based, human; conditions: multi-drug resistant HT-29 colon cancer cells
Protocol: (§2) The effects of the compounds 5b, 6b, 8a, and 8e according to the present invention and of the reference compound 25f (Wang et al., J. Med. Chem. 2002, 45, 1697-1711) on cells of the following human tumor cell lines were evaluated: 518A2 melanoma, HL-60 leukemia, HT-29 colon carcinoma, KB-V1/Vbl cervical carcinoma, and MCF-7/Topo breast carcinoma.
(§3) The HL-60 cells were obtained from the German Collection of Biological Material (DSMZ), Braunschweig, Germany; the human 518A2 melanoma cells as well as the testicular germ cell tumor cell lines H12.1 and 1411HP were cultured in the department of oncology and hematology, Medical Faculty of the Martin-Luther University, Halle, Germany; the KBV1/Vbl and the MCF-7/Topo cells were obtained from the Institute of Pharmacy of the University Regensburg, Germany; and the colon HT-29 cells from the University Hospital Erlangen, Germany. The HL-60 and the HT-29 cells were grown in RPMI-1640 medium supplemented with 10% fetal calf serum (FCS), 100 IU/mL penicillin G, 100 μg/mL streptomycin sulfate, 0.25 μg/mL amphotericin B and 250 μg/mL gentamycine (all from Gibco, Egenstein, Germany). The 518A2 and the KB-V1/Vbl cells were cultured in Dulbecco's Modified Eagle Medium (D-MEM, Gibco) containing 10% FCS, 100 IU/mL penicillin G, 100 μg/mL streptomycin sulfate, 0.25 μg/mL amphotericin B and 250 μg/mL gentamycine. The MCF-7/Topo cells were grown in E-MEM medium (Sigma) supplemented with 2.2 g/L NaHCO3, 110 mg/L sodium pyruvate and 5% FCS. The cells were maintained in a moisture-saturated atmosphere (5% CO2) at 37° C. in 75-mL culture flasks (Nunc, Wiesbaden, Germany). They were serially passaged following trypsinisation by 0.05% trypsin/0.02% EDTA (PAA laboratories, Clbe, Germany). Mycoplasma contamination was routinely monitored, and only mycoplasma-free cultures were used.
(§4) MTT [3-(4,5-dimethylthiazol-2-yl)-2,5-diphenyltetrazolium bromide](ABCR) was used to identify viable cells which reduce it to a violet formazan (Mosmann, J. Immunol. Methods 1983, 65, 55-63). HL-60 leukemia cells (5×10^5/mL), and cells (5×10^4/mL) of 518A2 melanoma, HT-29 colon, KB-V1/Vbl cervix and MCF-7/Topo breast carcinoma were seeded out in 96-well tissue culture plates and cultured for 24 h. Incubation (5% CO2, 95% humidity, 37° C.) of the cells following treatment with the test compounds was continued for 24, 48 or 72 h. Blank and solvent controls were treated identically. MTT in phosphate buffered saline (5 mg/mL) was added to a final concentration of 0.05% (HL-60, 518A2) or 0.1% (HT-29, KB-V1/Vbl, MCF-7/Topo). After 2 h the formazan precipitate was dissolved in 10% sodium dodecylsulfate in DMSO containing 0.6% acetic acid in the case of the HL-60 cells. For the adherent 518A2, KB-V1/Vbl, MCF-7/Topo and HT-29 cells the microplates were swiftly turned to discard the medium before adding the solvent mixture. The microplates were gently shaken in the dark for 30 min and absorbance at 570 nm and 630 nm (background) was measured with an ELISA plate reader. All experiments were carried out in quadruplicate; the percentage of viable cells was calculated as the mean±SD with controls set to 100%.

[9] = system: H12.1 xenograft; conditions: H12.1 xenograft bearing mice; cited from earlier work
[10] = system: 1411HP germ cell tumor xenografts; conditions: 1411HP xenografts; cited from earlier work
[11] = Bedford et al., Bioorg. Med. Chem. Lett. 1996; cited from earlier work
[12] = system: HL-60 cells; assay: TUNEL assay; assay type: cell-based, human; conditions: 10 μM; 16 h incubation
[13] = system: HUVEC cells; assay: Tube formation assay on matrigel; assay type: cell-based
Protocol: 35 μL of media:matrigel (1:1) were added into wells of a 96-well plate and incubated at 37° C. for 30 minutes. A trypsinized HUVEC cell suspension was set to 800.000 cells/mL. In another 96-well plate 25 μL of the compound stock were serially diluted with 25 μL of media. 25 μL of compound dilutions and 25 μL of cell suspension were added to the matrigel coated 96-well plate and the cells were incubated over night. As a negative control, methanol was used as in place of the compound dilutions.

[14] = system: HL-60 cells; assay: Mitochondrial membrane assay (JC-1), HL-60; assay type: cell-based, human; conditions: 5 μM, red/green fluorescence ratio relative to untreated controls (100%), mean ± SD
Protocol: (§5) Values represent means of four independent experiments±standard deviation.
(§6) Changes in mitochondrial membrane potential were determined by the Mitochondrial Membrane Detection Kit (Stratagene, La Jolla, Calif., USA) according to the manufacturer's procedure. 72 h following treatment with 5 μM of the test compounds, cell samples were centrifuged at 400 g for 5 min. The pellets were resuspended in 500 μL diluted JC-1 solution, incubated at 37° C. for 15 min (HL-60) and then centrifuged again for 5 min at 400 g. After washing, the pellets were resuspended in 100 μL PBS and transferred into the wells of a black 96-well plate. The red (λex=585 nm, λem=590 nm) and green (λex=510 nm, λem=527 nm) fluorescence intensities were measured and their ratio was calculated.

[15] = system: HL-60 cells; assay: ROS generation, NBT assay, HL-60; assay type: cell-based, human; conditions: 50 μM, relative to untreated controls (1%), mean ± SD
Protocol: (§7) The generation of reactive oxygen species (ROS) in tumor cells is a sign of cellular stress resulting in severe damage of cellular components such as DNA, lipids or proteins.
(§8) For the NBT assay, HL-60 cells (0.5·10^6/mL) were plated in 96-well tissue culture plates, and test compounds were added after 24 h incubation at 37° C. to achieve a final concentration of 50 μM. […] After removal of the cell medium by centrifugation, the cells in each well were resuspended in 100 μL 0.1% NBT, and the plates were placed in the incubator for 1 h. The reduced NBT was solubilized with 100 μl 2 M KOH and 130 μl DMSO for 30 min. The absorbance was measured for each well at 630 and 405 nm (background) using an ELISA plate reader. The adherent 518A2 cells (0.5·10^4/mL) were seeded out in 96-well tissue culture plates after trypsinization and incubation for 24 h at 37° C. to allow attachment, then treated similarly, only that the medium was removed prior to incubation with NBT for 4 h. All experiments were carried out in quadruplicate.

[16] = system: 518A2 cells; assay: ROS generation, NBT assay, 518A2; assay type: cell-based, human; conditions: 50 μM, relative to untreated controls (1%), mean ± SD
Protocol: as §7, §8

[17] = system: MCF-7/Topo breast carcinoma cells; assay: MTT cell growth inhibition, MCF-7/Topo; assay type: cell-based, human; conditions: MCF-7/Topo (BCRP+)
Protocol: as §2, §3
as §4, with “MTT in phosphate buffered saline (5 mg/mL) was added to a final concentration of 0.05% (HL-60, 518A2) or 0.1% (HT-29, KB-V1/Vbl, MCF-7/Topo). After 2 h the formazan precipitate was dissolved in 10% sodium dodecylsulfate in DMSO containing 0.6% acetic acid in the case of the HL-60 cells. For the adherent 518A2, KB-V1/Vbl, MCF-7/Topo and HT-29 cells the microplates were swiftly turned to discard the medium before adding the solvent mixture.” left out

[18] = system: KB-V1/Vbl cervical carcinoma cells; assay: MTT cell growth inhibition, KB-V1/Vbl; assay type: cell-based, human; conditions: KB-V1/Vbl (Pgp+)
Protocol: The MCF-7/Topo cells were grown in E-MEM medium (Sigma) supplemented with 2.2 g/L NaHCO3, 110 mg/L sodium pyruvate and 5% FCS. The cells were maintained in a moisture-saturated atmosphere (5% CO2) at 37° C. in 75-mL culture flasks (Nunc, Wiesbaden, Germany). They were serially passaged following trypsinisation by 0.05% trypsin/0.02% EDTA (PAA laboratories, Clbe, Germany). Mycoplasma contamination was routinely monitored, and only mycoplasma-free cultures were used.
as §4, with “HL-60” for “MTT [3-(4,5-dimethylthiazol-2-yl)-2,5-diphenyltetrazolium bromide](ABCR) was used to identify viable cells which reduce it to a violet formazan (Mosmann, J. Immunol. Methods 1983, 65, 55-63). HL-60”, “Incubation (5% CO2, 95% humidity, 37° C.) of the cells following treatment with the test compounds was continued for 24, 48 or 72 h.” left out

[19] = system: 518A2 cells; assay: Mitochondrial membrane assay (JC-1), 518A2; assay type: cell-based, human; conditions: 5 μM, red/green fluorescence ratio relative to untreated controls (100%), mean ± SD
Protocol: as §5, §6

Row | Structure (SMILES) | IC50 [1] | IC50 [2] | IC50 [3] | minimal inhibitory concentration (MIC) HUVEC [4] | IC50 [5] | IC50 [6] | also measured
1 | COc1ccc(-c2ncn(C)c2-c2cc(Br)c(OC)c(Br)c2)cc1F [9b, 1-Methyl-4-(3-fluoro-4-methoxyphenyl)-5-(3,5-dibromo-4-methoxyphenyl)-imidazole] | 21700 nM | 14 nM | 395 nM | 0.257 µM (≈ 0.121 µg/mL) | 1180 nM | 9.9 nM | –
2 | COc1ccc(-c2ncn(C)c2-c2cc(I)c(OC)c(I)c2)cc1F [9c, 1-Methyl-4-(3-fluoro-4-methoxyphenyl)-5-(3,5-diiodo-4-methoxyphenyl)-imidazole] | 18 nM | 2.5 nM | 3330 nM | 0.083 µM (≈ 0.0468 µg/mL) | 333 nM | 3.3 nM | –
3 | COc1ccc(/C=C\c2cc(OC)c(OC)c(OC)c2)cc1O [CA-4, combretastatin A-4, reference compound] | – | – | – | – | – | – | effect on embryonal blood vessels [7]: dramatic vessel shrinkage within 24 h after treatment and to a complete degradation of the vascular system within three days; cytotoxicity (comparison) [8]: lower cytotoxicities than compounds 5b and 6b
4 | N.N.[Cl][Pt][Cl] [cisplatin] | – | – | – | – | – | – | tumor response [9]: complete regressions; tumor response [10]: only a transient growth inhibition followed by renewed tumor progress
5 | COc1ccc(/C=C\c2cc(OC)c(OC)c(OC)c2)cc1OP(=O)(O)O [combretastatin A-4-phosphate] | – | – | – | – | – | – | solubility in water [11]: about 5 mg/mL
6 | COc1ccc(-c2ocnc2-c2cc(N)c(OC)c(OC)c2)cc1N [compound 8a, 4-(3′-Amino-4′,5′-dimethoxyphenyl)-5-(3″-amino-4″-methoxyphenyl)-oxazole] | – | – | – | – | – | – | apoptotic (TUNEL-positive) cells [12]: about 60%; inhibition of tube formation ([13]; 7.72 ng/mL): pronounced inhibition of tube formation; Intact mitochondria [%] in HL-60 cells after 72 h [14]: 62 ± 9%; NBT Reduction [%] in HL-60 cells after 24 h [15]: 3.5 ± 0.4%; NBT Reduction [%] in 518A2 cells after 24 h [16]: 1.5 ± 0.1%; cytotoxicity / efficacy (comparison) [17]: greater efficacy than 25f and 5b/6b; efficacy (comparison) [18]: greater efficacy than 25f and 5b/6b; Intact mitochondria [%] in 518A2 cells after 72 h [19]: 85 ± 7%
7 | COc1ccc(-c2c(-c3cc(OC)c(OC)c(OC)c3)ncn2C)cc1N [compound 25f, reference compound] | 215 nM | 68 nM | 136 nM | 0.294 µM (≈ 0.109 µg/mL) | 453 nM | 90 nM | concentration that inhibits tube formation [13]: 130 ng/mL; Intact mitochondria [%] in HL-60 cells after 72 h [14]: 74% and 74 ± 13%; NBT Reduction [%] in 518A2 cells after 24 h [16]: 2.2 ± 0.4%; Intact mitochondria [%] in 518A2 cells after 72 h [19]: 87 ± 7%
